Measured values as given in patent US10918642B2, “N-(substituted-phenyl)-sulfonamide derivatives as kinase inhibitors” (Nerviano Medical Sciences S.R.L., priority 2016, dated 2021).

Target: PERK recombinant enzyme (cytoplasmic domain corresponding to residues 540-1115) (Homo sapiens (Human), UniProt Q9NZJ5)
Assay: PERK enzyme assay, Method 2: quantification of phosphorylated product with ATP/P33 gammaATP (Dowex resin)
Assay type: biochemical
Conditions: Method 2 (P33 gammaATP radiometric); 52 microM ATP, 8 nM PERK, 300 microM eIF2alpha peptide substrate, 60 minutes at room temperature
Description: The biochemical activity of compounds was determined by incubation with PERK recombinant enzyme (cytoplasmic domain corresponding to residues 540-1115) and elF2alpha peptide substrate (Aminoacid sequence: LLSELSRRRIRSINK—SEQ ID Nr: 1; purchased from American Peptide Company, product #341923). This was followed by:
Method 2: Quantification of the Phosphorylated Product Formed from the Kinase Reaction in Presence of ATP (Aldrich, Cat #A2620-9).
Serially diluted compounds were incubated for 60 minutes at room temperature in the presence of ATP/P^33 gammaATP mix, substrate and enzyme in a volume of 15 microL of kinase buffer in 384-well plates (Thermo Scientific, cat #4312).
The reaction volume contains, in final concentration, 52 microM ATP, 8 nM PERK and 300 microM substrate in 50 mM Hepes pH 7.5, 3 mM MgCl2, 1 mM DTT, 3 microM Na3VO4, 0.2 mg/ml BSA. The final concentration of DMSO was 1%.
At the end of the incubation, an amount of 60 microL of Dowex resin (Sigma, customized resin 1×8 200-400 mesh cat #13858-U) in 150 mM sodium formate buffer pH=3.0 was added to stop the reaction and capture unreacted ATP/P^33 gammaATP, separating it from the phosphorylated substrate in solution. After 60 minutes of rest, a volume of 22 microL of supernatant was transferred into 384-Optiplates (Perkin-Elmer, cat #6007290). After the addition of 50 microL of Microscint 40 (Perkin-Elmer, cat #6013641), the radioactivity was counted in the TopCount (Perkin Elmer).
The data per each molecule are analyzed by an internally customized version of the SW package “Assay Explorer”, or by GraphPad Prizm software alternatively, which provides sigmoidal fittings of the curves for IC50 determination using a 4 parameter logistic equation: y=bottom+(top−bottom)/(1+10^((log IC50−x)*slope))
where x is the logarithm of the inhibitor concentration, y is the response; y starts at bottom and goes to top with a sigmoid shape.

PERK recombinant enzyme (cytoplasmic domain corresponding to residues 540-1115), sequence (Q9NZJ5 540-1115): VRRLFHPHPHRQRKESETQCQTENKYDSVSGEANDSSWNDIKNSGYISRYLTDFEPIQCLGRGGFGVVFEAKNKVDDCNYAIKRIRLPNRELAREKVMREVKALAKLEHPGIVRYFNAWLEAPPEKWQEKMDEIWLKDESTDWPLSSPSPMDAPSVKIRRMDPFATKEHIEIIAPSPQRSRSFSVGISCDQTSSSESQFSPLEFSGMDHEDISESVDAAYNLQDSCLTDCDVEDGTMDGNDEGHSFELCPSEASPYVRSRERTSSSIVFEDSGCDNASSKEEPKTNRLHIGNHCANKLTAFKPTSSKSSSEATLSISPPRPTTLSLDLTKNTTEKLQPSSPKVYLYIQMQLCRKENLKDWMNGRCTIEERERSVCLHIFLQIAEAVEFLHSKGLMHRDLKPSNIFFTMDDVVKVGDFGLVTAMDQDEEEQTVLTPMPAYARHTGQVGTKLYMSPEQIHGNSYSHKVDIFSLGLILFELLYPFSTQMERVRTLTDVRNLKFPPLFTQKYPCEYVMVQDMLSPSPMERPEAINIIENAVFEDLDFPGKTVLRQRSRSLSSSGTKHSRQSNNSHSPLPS

pIC50 | IC50 | SMILES
C (pIC50 < 6.8) |  | COc1ccc(S(=O)(=O)Nc2cccc(-c3nn(C4CCN(C(=O)OC(C)(C)C)CC4)c4ncnc(N)c34)c2F)cc1Cl [cmpd 11, 4-{4-Amino-3-[3-(3-chloro-4-methoxy-benzenesulfonylamino)-2-fluoro-phenyl]-pyrazolo[3,4-d]pyrimidin-1-yl}-piperidine-1-carboxylic acid tert-butyl ester]
 | 15.8 to 50.1 nM | COc1cc(F)c(S(=O)(=O)Nc2cccc(-c3nn(C4CCN(C)CC4)c4ncnc(N)c34)c2F)cc1Cl [cmpd 61, N-{3-[4-Amino-1-(1-methyl-piperidin-4-yl)-1H-pyrazolo[3,4-d]pyrimidin-3-yl]-2-fluoro-phenyl}-5-chloro-2-fluoro-4-methoxy-benzenesulfonamide]
 | 15.8 to 50.1 nM | COc1ccc(S(=O)(=O)Nc2cccc(-c3nn(C4CCNCC4)c4ncnc(N)c34)c2F)cc1Cl [cmpd 63, N-[3-(4-Amino-1-piperidin-4-yl-1H-pyrazolo[3,4-d]pyrimidin-3-yl)-2-fluoro-phenyl]-3-chloro-4-methoxy-benzenesulfonamide]
 | 50.1 to 158 nM | COc1ccc(S(=O)(=O)Nc2cccc(-c3nn(C4CCN(C)CC4)c4ncnc(N)c34)c2F)cc1Cl [cmpd 66, N-{3-[4-Amino-1-(1-methyl-piperidin-4-yl)-1H-pyrazolo[3,4-d]pyrimidin-3-yl]-2-fluoro-phenyl}-3-chloro-4-methoxy-benzenesulfonamide]
AA (7.8 ≤ pIC50) |  | CN1CCC(n2cc(-c3cccc(NS(=O)(=O)c4ccc(Cl)c(Cl)c4)c3F)c3c(N)ncnc32)CC1 [cmpd 71, N-{3-[4-Amino-7-(1-methyl-piperidin-4-yl)-7H-pyrrolo[2,3-d]pyrimidin-5-yl]-2-fluoro-phenyl}-3,4-dichloro-benzenesulfonamide]

Second part, the compound before the results:

SMILES | pIC50 | IC50
COc1cc(F)c(S(=O)(=O)Nc2cccc(-c3nn(C4CCN(C(=O)OC(C)(C)C)CC4)c4ncnc(N)c34)c2F)cc1Cl [cmpd 10, 4-{4-Amino-3-[3-(5-chloro-2-fluoro-4-methoxy-benzenesulfonylamino)-2-fluoro-phenyl]-pyrazolo[3,4-d]pyrimidin-1-yl}-piperidine-1-carboxylic acid tert-butyl ester] | C (pIC50 < 6.8) | 
COc1cc(F)c(S(=O)(=O)Nc2cccc(-c3nn(C4CCNCC4)c4ncnc(N)c34)c2F)cc1Cl [cmpd 62, N-[3-(4-Amino-1-piperidin-4-yl-1H-pyrazolo[3,4-d]pyrimidin-3-yl)-2-fluoro-phenyl]-5-chloro-2-fluoro-4-methoxy-benzenesulfonamide] |  | 15.8 to 50.1 nM
COc1cc(F)c(S(=O)(=O)Nc2cccc(-c3nn(C4CCN(C(C)C)CC4)c4ncnc(N)c34)c2F)cc1Cl [cmpd 65, N-{3-[4-Amino-1-(1-isopropyl-piperidin-4-yl)-1H-pyrazolo[3,4-d]pyrimidin-3-yl]-2-fluoro-phenyl}-5-chloro-2-fluoro-4-methoxy-benzenesulfonamide] |  | 50.1 to 158 nM
CN1CCC(n2cc(-c3cccc(NS(=O)(=O)c4ccc(Br)cc4F)c3F)c3c(N)ncnc32)CC1 [cmpd 72, N-{3-[4-Amino-7-(1-methyl-piperidin-4-yl)-7H-pyrrolo[2,3-d]pyrimidin-5-yl]-2-fluoro-phenyl}-4-bromo-2-fluoro-benzenesulfonamide] |  | 15.8 to 50.1 nM
COc1cc(F)c(S(=O)(=O)Nc2cccc(-c3cn(C4CCN(C)CC4)c4ncnc(N)c34)c2F)cc1C [cmpd 73, N-{3-[4-Amino-7-(1-methyl-piperidin-4-yl)-7H-pyrrolo[2,3-d]pyrimidin-5-yl]-2-fluoro-phenyl}-2-fluoro-4-methoxy-5-methyl-benzenesulfonamide] | AA (7.8 ≤ pIC50) | 
CN1CCC(n2cc(-c3cccc(NS(=O)(=O)c4ccc(Br)s4)c3F)c3c(N)ncnc32)CC1 [cmpd 77, 5-Bromo-thiophene-2-sulfonic acid {3-[4-amino-7-(1-methyl-piperidin-4-yl)-7H-pyrrolo[2,3-d]pyrimidin-5-yl]-2-fluoro-phenyl}-amide] |  | 15.8 to 50.1 nM
COc1cc(S(=O)(=O)Nc2cccc(-c3cn(C)c4ncnc(N)c34)c2F)c(F)cc1Cl [cmpd 79, N-[3-(4-Amino-7-methyl-7H-pyrrolo[2,3-d]pyrimidin-5-yl)-2-fluoro-phenyl]-4-chloro-2-fluoro-5-methoxy-benzenesulfonamide] |  | 15.8 to 50.1 nM
Cn1cc(-c2cccc(NS(=O)(=O)C3CCCCC3)c2F)c2c(N)ncnc21 [cmpd 89, Cyclohexanesulfonic acid [3-(4-amino-7-methyl-7H-pyrrolo[2,3-d]pyrimidin-5-yl)-2-fluoro-phenyl]-amide] | C (pIC50 < 6.8) | 
COc1cc(F)c(S(=O)(=O)Nc2cccc(-c3cn(C)c4ncnc(N)c34)c2C#N)cc1Cl [cmpd 90, N-[3-(4-Amino-7-methyl-7H-pyrrolo[2,3-d]pyrimidin-5-yl)-2-cyano-phenyl]-5-chloro-2-fluoro-4-methoxy-benzenesulfonamide] |  | 50.1 to 158 nM
